Values after ≈ are worked out from the molar mass of the structure shown. Residues, ends and D or L forms follow the SMILES beside them.
Key:
Assay type in all cases: cell-based
Staphylococcus aureus = tested on: Staphylococcus aureus
Procedure: (§1) Minimum Inhibitory Concentration (MIC) of these antibacterial peptides (1) to (5) against Staphylococcus aureus, methicillin resistant Staphylococcus aureus (MRSA), Escherichia coli and Pseudomonas aeruginosa was determined.

Pseudomonas aeruginosa = tested on: Pseudomonas aeruginosa
Procedure: as §1

[1] = tested on: methicillin resistant Staphylococcus aureus (MRSA)
Procedure: as §1

Question: Which results are given for `CC[C@H](C)[C@H](NC(=O)[C@H](C)NC(=O)[C@H](CC(C)C)NC(=O)[C@H](CCCNC(=N)N)NC(=O)[C@H](CC(C)C)NC(=O)[C@H](C)N)C(=O)N[C@@H](CCCNC(=N)N)C(=O)N[C@@H](CCCCN)C(=O)N[C@@H](CCCNC(=N)N)C(N)=O` [present peptide (1), Ala-Leu-Arg-Leu-Ala-Ile-Arg-Lys-Arg-NH2] (H-ALRLAIRKR-NH2; N-terminus assumed)?
Answer: MIC S. aureus (Staphylococcus aureus): 5 mg/L (≈ 4.56 µM); MIC P. aeruginosa (Pseudomonas aeruginosa): >15 mg/L

Question: `CC[C@H](C)[C@H](NC(=O)[C@H](C)NC(=O)[C@H](CC(C)C)NC(=O)[C@H](CC(C)C)NC(=O)[C@H](CC(C)C)NC(=O)[C@H](C)N)C(=O)N[C@@H](CCCNC(=N)N)C(=O)N[C@@H](CCCCN)C(=O)N[C@@H](CCCNC(=N)N)C(N)=O` [present peptide (2), Ala-Leu-Leu-Leu-Ala-Ile-Arg-Lys-Arg-NH2] (H-ALLLAIRKR-NH2; N-terminus assumed) was tested. Which “MIC S. aureus” value (Staphylococcus aureus) did it give?
Answer: 4 mg/L (≈ 3.8 µM)

Question: And the “MIC MRSA” value [1]?
Answer: 40 mg/L (≈ 38 µM)

Question: What about the “MIC P. aeruginosa” value (Pseudomonas aeruginosa) of the same compound?
Answer: 4 mg/L (≈ 3.8 µM)

Question: For `CC[C@H](C)[C@H](NC(=O)[C@H](C)NC(=O)[C@H](CC(C)C)NC(=O)[C@H](CC(C)C)NC(=O)[C@H](Cc1c[nH]c2ccccc12)NC(=O)[C@H](C)N)C(=O)N[C@@H](CCCNC(=N)N)C(=O)N[C@@H](CCCCN)C(=O)N[C@@H](CCCNC(=N)N)C(N)=O` [present peptide (3), Ala-Trp-Leu-Leu-Ala-Ile-Arg-Lys-Arg-NH2] (H-AWLLAIRKR-NH2; N-terminus assumed), which “MIC S. aureus” value (Staphylococcus aureus) is on record?
Answer: 3 mg/L (≈ 2.67 µM)

Question: And the “MIC MRSA” value [1]?
Answer: 25 mg/L (≈ 22.2 µM)

Question: And the “MIC P. aeruginosa” value (Pseudomonas aeruginosa)?
Answer: 4 mg/L (≈ 3.55 µM)

Question: `CC[C@H](C)[C@H](NC(=O)[C@H](C)NC(=O)[C@H](CC(C)C)NC(=O)[C@H](Cc1ccc(O)cc1)NC(=O)[C@H](CC(C)C)NC(=O)[C@H](C)N)C(=O)N[C@@H](CCCNC(=N)N)C(=O)N[C@@H](CCCCN)C(=O)N[C@@H](CCCNC(=N)N)C(N)=O` [present peptide (4), Ala-Leu-Tyr-Leu-Ala-Ile-Arg-Lys-Arg-NH2] was tested. Which “MIC S. aureus” value (Staphylococcus aureus) did it give?
Answer: 2 mg/L (≈ 1.81 µM)

Question: What about the “MIC MRSA” value [1] of the same compound?
Answer: 30 mg/L (≈ 27.2 µM)

Question: What about the “MIC P. aeruginosa” value (Pseudomonas aeruginosa) of the same compound?
Answer: 4 mg/L (≈ 3.63 µM)

Question: For `CC[C@H](C)[C@H](NC(=O)[C@H](C)NC(=O)[C@H](CC(C)C)NC(=O)[C@H](Cc1c[nH]c2ccccc12)NC(=O)[C@H](CC(C)C)NC(=O)[C@H](C)N)C(=O)N[C@@H](CCCNC(=N)N)C(=O)N[C@@H](CCCCN)C(=O)N[C@@H](CCCNC(=N)N)C(N)=O` [present peptide (5), Ala-Leu-Trp-Leu-Ala-Ile-Arg-Lys-Arg-NH2] (H-ALWLAIRKR-NH2; N-terminus assumed), which “MIC S. aureus” value (Staphylococcus aureus) is on record?
Answer: 4 mg/L (≈ 3.55 µM)

Question: What about the “MIC MRSA” value [1] of the same compound?
Answer: 40 mg/L (≈ 35.5 µM)

Question: What about the “MIC P. aeruginosa” value (Pseudomonas aeruginosa) of the same compound?
Answer: 10 mg/L (≈ 8.89 µM)

Reference: patent US6476189B1, “Antibacterial peptides and antibacterial agents containing such peptides as an effective ingredient” (National Institute of Agrobiological Sciences, priority 1998, dated 2002)
